Earlier results as cited in patent US7560120B2, “Vehicles for delivery of biologically active substances” (University of Tennessee Research Foundation, priority 2002, dated 2009).
Structures can show the parent of a compound that is named as a salt. Where two headings read alike, the source gives them in different places.

Experiments:
Rat [1] = settings: oral
[2] = not given; remark: listed apart in the source
Rat [3] = settings: in vivo, sc

Row | Structure (SMILES) | LD50 (Rat [1]) [mg/kg] | Viscosity (cps) at 25° C. [cps] | Water Solubility at 25° C. (g/100 ml) [2] [g/100 ml] | LD50 (Rat [3]) [mg/kg]
1 | CCCCCCOC(=O)CC(CC(=O)OCCCCCC)(OC(C)=O)C(=O)OCCCCCC [A-6, Acetyltri-n-hexyl Citrate] | 20000 | 36 | – | –
2 | CCCCCCOC(=O)CC(CC(=O)OCCCCCC)(OC(=O)CCC)C(=O)OCCCCCC [B-6, Butyryltri-n-hexyl Citrate] | 2000 | 28 | – | –
3 | CCOC(=O)CC(CC(=O)OCC)(OC(C)=O)C(=O)OCC [ATEC, acetyl triethyl citrate] | 7000 | 54 | – | –
4 | CCCCOC(=O)CC(CC(=O)OCCCC)(OC(C)=O)C(=O)OCCCC [ATBC, Acetyl Tributyl Citrate] | >25000 | 33 | <0.1 | –
5 | CCCCOC(=O)CC(O)(CC(=O)OCCCC)C(=O)OCCCC [TBC, Tributyl Citrate] | >30000 | 32 | <0.1 | –
6 | CCOC(=O)CC(O)(CC(=O)OCC)C(=O)OCC [TEC, triethyl citrate] | – | 35 | – | 6600
